Source: paper PMC8068801, “Novel Benzenesulfonate Scaffolds with a High Anticancer Activity and G2/M Cell Cycle Arrest” (Cancers, 2021)

Columns and labels:
HCT 116 p53^−/− cells = experiment: MTS cytotoxicity assay, HCT 116 p53-/-; assay type: cell-based, human; settings: for IC50: Homo sapiens, HCT 116 p53^−/−, 72 h incubation, MTS; for Selectivity index, HCT 116 p53 −/−: NHDF vs HCT 116 p53 −/−
Text: (§1) M. Rusin from the Maria Sklodowska-Curie Memorial Cancer Centre and Institute of Oncology in Gliwice, Poland. […] G. Kramer-Marek from the Institute of Cancer Research in London, United Kingdom. The human suspension chronic myelogenous leukemia cell line K562 and pancreas ductal adenocarcinoma cell line PANC-1 were purchased from Sigma-Aldrich (St. Louis, MO, USA), while the normal human dermal fibroblasts cell line NHDF were purchased from PromoCell. […] Each medium contained a combination of two antibiotics: penicillin and streptomycin (1% v/v; Gibco). All of these cell lines were grown under standard conditions at 37 °C with a 5% CO2 humidified atmosphere. Moreover, all of the cell lines were routinely tested for mycoplasma using the PCR technique with specific Mycoplasma primers to confirm that there was no contamination.
(§2) The assay was performed following a 72 h incubation with the various concentrations of the tested compounds. Then, 100 µL DMEM without phenol red with 20 µL of the CellTiter 96®AQueous One Solution-MTS (Promega, Promega, WI, USA) was added to each well and incubated for 1 h or 3 h (PANC-1) at 37 °C. The optical densities of the samples were measured at 490 nm using a multi-plate reader (Synergy 4, BioTek, Winooski, VT, USA). […] Each individual compound was tested in triplicate in a single experiment with each experiment being performed three or four times.

CSK = biological target: T1, CSK (Homo sapiens, UniProt P41240); experiment: Tyrosine kinase assay (Kinase Selectivity TK-2, ADP-Glo); assay type: biochemical; settings: read-out: Inhibitory Effect of the Tyrosine Kinase Activity, CSK
T1 construct: purchased Promega
T1 sequence (P41240 whole entry): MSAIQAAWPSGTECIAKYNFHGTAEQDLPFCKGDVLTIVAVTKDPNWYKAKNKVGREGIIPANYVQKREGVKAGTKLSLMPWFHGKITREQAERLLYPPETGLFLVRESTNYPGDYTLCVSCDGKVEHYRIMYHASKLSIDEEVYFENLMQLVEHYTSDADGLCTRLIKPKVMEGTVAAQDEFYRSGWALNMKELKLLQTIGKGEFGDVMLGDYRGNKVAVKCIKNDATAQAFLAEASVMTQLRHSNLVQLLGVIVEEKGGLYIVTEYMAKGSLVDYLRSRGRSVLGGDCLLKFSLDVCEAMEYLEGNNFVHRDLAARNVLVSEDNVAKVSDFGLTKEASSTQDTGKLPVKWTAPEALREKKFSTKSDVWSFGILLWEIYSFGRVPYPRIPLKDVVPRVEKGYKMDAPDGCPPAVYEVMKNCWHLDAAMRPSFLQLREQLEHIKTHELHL
Experimental: (§3) Assays using the Kinase Selectivity TK-2 profiling systems and ADP-Glo Kinase Assay (both from Promega) were performed to determine the inhibition of the non-receptor tyrosine kinases. The protocol was previously designed and described by our group in reports. The experiments were performed at least four times. The data are expressed as the percentage of the inhibition activity of tyrosine kinase after treatment with the tested derivatives.

Lyn B = biological target: T2, Lyn B (Homo sapiens, UniProt P07948); experiment: as above; assay type: biochemical; settings: read-out: Inhibitory Effect of the Tyrosine Kinase Activity, Lyn B
T2 construct: purchased Promega
T2 sequence (P07948 1-491 isoform P07948-2): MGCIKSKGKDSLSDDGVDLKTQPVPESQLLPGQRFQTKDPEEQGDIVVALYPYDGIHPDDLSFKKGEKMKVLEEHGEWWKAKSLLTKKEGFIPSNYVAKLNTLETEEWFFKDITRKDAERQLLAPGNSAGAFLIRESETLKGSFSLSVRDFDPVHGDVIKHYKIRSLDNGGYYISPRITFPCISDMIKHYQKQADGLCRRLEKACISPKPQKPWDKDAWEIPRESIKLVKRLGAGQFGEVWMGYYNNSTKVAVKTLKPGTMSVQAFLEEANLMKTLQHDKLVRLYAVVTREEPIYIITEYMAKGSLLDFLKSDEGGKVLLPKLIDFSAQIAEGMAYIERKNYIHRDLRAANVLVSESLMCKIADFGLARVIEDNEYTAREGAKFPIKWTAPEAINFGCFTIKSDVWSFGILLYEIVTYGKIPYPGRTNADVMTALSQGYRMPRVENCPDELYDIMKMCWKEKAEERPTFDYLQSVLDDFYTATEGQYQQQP
Experimental: as §3

Fyn A = biological target: T3, Fyn A (Homo sapiens, UniProt P06241); experiment: as above; assay type: biochemical; settings: read-out: Inhibitory Effect of the Tyrosine Kinase Activity, Fyn A
T3 construct: purchased Promega
T3 sequence (P06241 whole entry): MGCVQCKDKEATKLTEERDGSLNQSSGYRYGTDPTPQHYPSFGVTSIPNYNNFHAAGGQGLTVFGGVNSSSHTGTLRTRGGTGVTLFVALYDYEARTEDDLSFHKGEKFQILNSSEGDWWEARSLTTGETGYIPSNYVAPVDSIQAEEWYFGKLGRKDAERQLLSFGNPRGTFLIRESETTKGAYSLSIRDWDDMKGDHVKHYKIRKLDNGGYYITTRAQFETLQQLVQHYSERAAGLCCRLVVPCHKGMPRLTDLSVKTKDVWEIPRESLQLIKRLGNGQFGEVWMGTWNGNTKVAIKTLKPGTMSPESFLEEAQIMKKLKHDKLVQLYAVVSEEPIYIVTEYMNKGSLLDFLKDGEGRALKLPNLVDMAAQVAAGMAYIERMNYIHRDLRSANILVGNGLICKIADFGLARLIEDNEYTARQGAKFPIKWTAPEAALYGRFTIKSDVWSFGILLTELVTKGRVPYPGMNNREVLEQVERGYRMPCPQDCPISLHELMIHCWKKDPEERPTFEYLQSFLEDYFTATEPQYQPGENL
Experimental: as §3

BRK = biological target: T4, BRK (Homo sapiens, UniProt Q13882); experiment: as above; assay type: biochemical; settings: read-out: Inhibitory Effect of the Tyrosine Kinase Activity, BRK
T4 construct: purchased Promega
T4 sequence (Q13882 whole entry): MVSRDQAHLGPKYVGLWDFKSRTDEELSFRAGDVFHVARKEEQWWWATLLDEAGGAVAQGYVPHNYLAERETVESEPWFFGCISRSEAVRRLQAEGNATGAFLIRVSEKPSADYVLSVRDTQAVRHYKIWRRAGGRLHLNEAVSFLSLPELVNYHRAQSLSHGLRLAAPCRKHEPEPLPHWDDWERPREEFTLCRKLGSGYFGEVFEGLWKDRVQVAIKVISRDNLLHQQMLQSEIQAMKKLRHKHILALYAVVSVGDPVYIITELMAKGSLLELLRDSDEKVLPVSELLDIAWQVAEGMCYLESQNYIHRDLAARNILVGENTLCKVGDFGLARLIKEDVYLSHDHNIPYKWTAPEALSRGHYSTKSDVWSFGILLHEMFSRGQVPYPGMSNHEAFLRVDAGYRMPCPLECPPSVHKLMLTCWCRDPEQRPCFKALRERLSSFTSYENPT
Experimental: as §3

U-251 cells [1] = experiment: Immunoblotting with densitometry, U-251; assay type: cell-based, human; settings: for PARP/Reference 89 kDa, densitometric intensity ratio / caspase-9/Reference 37-35 kDa, densitometric intensity ratio: control 0.330; for BID/Reference 22 kDa, densitometric intensity ratio / Cathepsin b/Reference 44 kDa, densitometric intensity ratio / HIF-1α/Reference 120 kDa, densitometric intensity ratio / PARP/Reference 116 kDa, densitometric intensity ratio / caspase-9/Reference 47 kDa, densitometric intensity ratio / cdc2/Reference 34 kDa, densitometric intensity ratio / cyclin E1/Reference 48 kDa, densitometric intensity ratio / p21/Reference 21 kDa, densitometric intensity ratio / p53/Reference 53 kDa, densitometric intensity ratio: control 1.000; for Cathepsin b/Reference 27 kDa, densitometric intensity ratio: control 2.837; for Cathepsin b/Reference 22 kDa, densitometric intensity ratio: control […]
Experimental: The K562 and U-251 cells were seeded in 3 cm Petri dishes (Nunc) at a density of 500,000 cells per well and incubated overnight. […] Next, the cell pellets were resuspended in an RIPA buffer containing a Halt Protease Inhibitor Cocktail and a Halt Phosphatase Inhibitor Cocktail along with 0.5 M EDTA (all from Thermo Scientific, Waltham, MA, USA) and lysed on ice for 20 min. Then, the obtained lysates were sonicated and centrifuged at 10,000 rpm for 10 min at 4 °C. The supernatants were collected for further analysis. The protein concentration was measured using a Micro BCA™ Protein Assay Kit (Thermo Scientific) according to the manufacturer’s instructions. Equal amounts of the proteins (16 μg) were electrophoresed on SDS-Page gels and transferred onto nitrocellulose membranes. The membranes were blocked in 5% non-fat milk prepared in TPBS (PBS containing 0.1% Tween-20) for 1 h. After blocking, the membranes were incubated with the specific primary antibodies (all from Cell Signaling) at a 1:1000 dilution—cyclin E, cdc2, PARP, AIF, BID, p53, p21^Waf1/Cip1, HIF-1α, cathepsin B and caspase-9—and at a 1:2000 dilution for the reference proteins—vinculin, β-actin and GAPDH—overnight at 4 °C. The next day, the membranes were washed in TPBS and incubated with horseradish peroxidase (HRP)-conjugated secondary antibodies for 1 h at room temperature. Lastly, the membranes were washed in TPBS and incubated with a SuperSignal™ West Pico Chemiluminescent Substrate (Thermo Scientific). The chemiluminescence signals were captured using a ChemiDoc™ XRS + System (Biorad). The experiments were performed at least four to five times. The densitometric analysis was conducted using ImageJ software (Wayne Rasband, National Institutes of Health, Bethesda, MD, USA).
The band intensity of tested proteins (p53, cyclin E1, cdc2, p21, HIF-1α, cathepsin b, PARP, caspase-9, BID, AIF) were analyzed by densitometry readings/intensity ratio, using ImageJ software (NIH) and were normalized to the corresponding reference proteins (GAPDH, vinculin or β-actin) value.
The densitometric readings/intensity ratio data from four/five independent experiments (compared to control): […]
p53/ Refer- p21/ Refer- cdc2/ Refer- Cyclin E1/ HIF-1α/ Cathepsin b/Reference ence ence ence Reference Reference
PARP/Reference BID/ Reference Caspase-9/Reference […]

NHDF cells = experiment: MTS cytotoxicity assay, normal fibroblasts NHDF; assay type: cell-based; settings: NHDF normal human fibroblasts, 72 h incubation
Text: as §1, §2

MCF-7 cells = experiment: MTS cytotoxicity assay, MCF-7; assay type: cell-based, human; settings: for IC50: Homo sapiens, MCF7, MCF-7, 72 h incubation, MTS; for Selectivity index, MCF-7: NHDF vs MCF-7
Text: as §1, §2

K562 cells = experiment: MTS cytotoxicity assay, K562; assay type: cell-based, human; settings: for IC50: Homo sapiens, K562, 72 h incubation, MTS; for Selectivity index, K562: normal fibroblasts NHDF vs K562
Text: as §1, §2

A549 cells = experiment: MTS cytotoxicity assay, A549; assay type: cell-based, human; settings: for IC50: Homo sapiens, A549, 72 h, A549, 72 h incubation, MTS; for Selectivity index, A549: NHDF vs A549
Text: as §1, §2

HCT 116 p53^+/+ cells = experiment: MTS cytotoxicity assay, HCT 116 p53+/+; assay type: cell-based, human; settings: for IC50: Homo sapiens, HCT 116 p53^+/+, 72 h incubation, MTS; for Selectivity index, HCT 116 p53+/+: NHDF vs HCT 116 p53+/+
Text: as §1, §2

PANC-1 cells = experiment: MTS cytotoxicity assay, PANC-1; assay type: cell-based, human; settings: for IC50: Homo sapiens, PANC-1, 72 h incubation, MTS; for Selectivity index, PANC-1: NHDF vs PANC-1
Text: as §1, §2

U-251 cells [2] = experiment: MTS cytotoxicity assay, U-251; assay type: cell-based, human; settings: for IC50: Homo sapiens, U-251, 72 h incubation, MTS; for Selectivity index, U-251: NHDF vs U-251
Text: as §1, §2

## COc1ccccc1/C=C/c1nc(OS(=O)(=O)c2ccc3c(c2)OCO3)c2ccccc2n1 [BS1, 2-((E)-2-(2-methoxyphenyl)ethenyl)quinazolin-4-yl 1,3-benzodioxole-5-sulfonate]
HCT 116 p53^−/− cells
  IC50: 0.563 ± 0.121 µM
  Selectivity index, HCT 116 p53 −/−: 22.27
CSK
  inhibition at 0.5 µM: 0%
Lyn B
  inhibition at 0.5 µM: 0%
Fyn A
  inhibition at 0.5 µM: 23.7%
BRK
  inhibition at 0.5 µM: 15.3%
U-251 cells [1]; U-251, 4 µM, 24 h
  Cleavage product of caspase-9 (Western blot): approximately three-fold increase
U-251 cells [1]; U-251, 4µM, 24 h
  PARP/Reference 89 kDa, densitometric intensity ratio: 1.044
  caspase-9/Reference 37-35 kDa, densitometric intensity ratio: 1.485
  BID/Reference 22 kDa, densitometric intensity ratio: 0.675
  Cathepsin b/Reference 44 kDa, densitometric intensity ratio: 2.467
  HIF-1α/Reference 120 kDa, densitometric intensity ratio: 0.550
  PARP/Reference 116 kDa, densitometric intensity ratio: 0.871
  caspase-9/Reference 47 kDa, densitometric intensity ratio: 1.167
  cdc2/Reference 34 kDa, densitometric intensity ratio: 1.986
  cyclin E1/Reference 48 kDa, densitometric intensity ratio: 0.576
  p21/Reference 21 kDa, densitometric intensity ratio: 1.932
  p53/Reference 53 kDa, densitometric intensity ratio: 1.357
  Cathepsin b/Reference 27 kDa, densitometric intensity ratio: 2.726
  Cathepsin b/Reference 22 kDa, densitometric intensity ratio: 2.940
U-251 cells [1]; U-251, 24 h
  HIF-1α protein expression (Western blot): significant decrease
  p53 protein levels (Western blot): slight increase
NHDF cells
  IC50: 12.5 ± 0.855 µM
MCF-7 cells
  IC50: 8.32 ± 1.94 µM
  Selectivity index, MCF-7: 1.51
K562 cells
  IC50: 0.172 ± 0.034 µM
  Selectivity index, K562: 72.91
A549 cells
  IC50: > 25 µM
  Selectivity index, A549: 1.00
HCT 116 p53^+/+ cells
  IC50: 0.88 ± 0.086 µM
  Selectivity index, HCT 116 p53+/+: 14.25
PANC-1 cells
  IC50: 3.98 ± 0.597 µM
  Selectivity index, PANC-1: 3.15
U-251 cells [2]
  IC50: 1.9 ± 0.649 µM
  Selectivity index, U-251: 6.61

## COc1ccccc1/C=C/c1nc(OS(=O)(=O)c2cc3c(cc2Br)OCO3)c2ccccc2n1 [BS2, 2-((E)-2-(2-methoxyphenyl)ethenyl)quinazolin-4-yl 6-bromo-1,3-benzodioxole-5-sulfonate]
HCT 116 p53^−/− cells
  IC50: 1.31 ± 0.29 µM
  Selectivity index, HCT 116 p53 −/−: 11.94
CSK
  inhibition at 0.5 µM: 34.2%
Lyn B
  inhibition at 0.5 µM: 38%
Fyn A
  inhibition at 0.5 µM: 0%
BRK
  inhibition at 0.5 µM: 9.33%
U-251 cells [1]; U-251, 4µM, 24 h
  PARP/Reference 89 kDa, densitometric intensity ratio: 0.763
  caspase-9/Reference 37-35 kDa, densitometric intensity ratio: 1.071
  BID/Reference 22 kDa, densitometric intensity ratio: 0.701
  Cathepsin b/Reference 44 kDa, densitometric intensity ratio: 1.805
  HIF-1α/Reference 120 kDa, densitometric intensity ratio: 0.587
  PARP/Reference 116 kDa, densitometric intensity ratio: 0.953
  caspase-9/Reference 47 kDa, densitometric intensity ratio: 1.007
  cdc2/Reference 34 kDa, densitometric intensity ratio: 2.272
  cyclin E1/Reference 48 kDa, densitometric intensity ratio: 0.465
  p21/Reference 21 kDa, densitometric intensity ratio: 2.205
  p53/Reference 53 kDa, densitometric intensity ratio: 1.698
  Cathepsin b/Reference 27 kDa, densitometric intensity ratio: 2.625
  Cathepsin b/Reference 22 kDa, densitometric intensity ratio: 2.893
U-251 cells [1]; U-251, 6µM, 24 h
  PARP/Reference 89 kDa, densitometric intensity ratio: 0.698
  caspase-9/Reference 37-35 kDa, densitometric intensity ratio: 1.188
  BID/Reference 22 kDa, densitometric intensity ratio: 1.227
  Cathepsin b/Reference 44 kDa, densitometric intensity ratio: 2.641
  HIF-1α/Reference 120 kDa, densitometric intensity ratio: 0.661
  PARP/Reference 116 kDa, densitometric intensity ratio: 0.940
  caspase-9/Reference 47 kDa, densitometric intensity ratio: 1.035
  cdc2/Reference 34 kDa, densitometric intensity ratio: 2.282
  cyclin E1/Reference 48 kDa, densitometric intensity ratio: 0.392
  p21/Reference 21 kDa, densitometric intensity ratio: 2.783
  p53/Reference 53 kDa, densitometric intensity ratio: 1.448
  Cathepsin b/Reference 27 kDa, densitometric intensity ratio: 3.172
  Cathepsin b/Reference 22 kDa, densitometric intensity ratio: 3.717
NHDF cells
  IC50: 15.7 ± 1.41 µM
MCF-7 cells
  IC50: 16.8 ± 2.06 µM
  Selectivity index, MCF-7: 0.93
K562 cells
  IC50: 0.246 ± 0.055 µM
  Selectivity index, K562: 63.70
A549 cells
  IC50: > 25 µM
  Selectivity index, A549: 1.00
HCT 116 p53^+/+ cells
  IC50: 1.2 ± 0.132 µM
  Selectivity index, HCT 116 p53+/+: 13.06
PANC-1 cells
  IC50: 2.91 ± 0.622 µM
  Selectivity index, PANC-1: 5.39
U-251 cells [2]
  IC50: 2.3 ± 0.234 µM
  Selectivity index, U-251: 6.80
